Experiment [1] has as its target T1, VEGFR1 (Homo sapiens, UniProt P17948).
T1 construct: GST-VEGFR1 (residues R781-I1338); GST (N); made in house; host or cells: Sf9 insect cells
T1 sequence (P17948 781-1338): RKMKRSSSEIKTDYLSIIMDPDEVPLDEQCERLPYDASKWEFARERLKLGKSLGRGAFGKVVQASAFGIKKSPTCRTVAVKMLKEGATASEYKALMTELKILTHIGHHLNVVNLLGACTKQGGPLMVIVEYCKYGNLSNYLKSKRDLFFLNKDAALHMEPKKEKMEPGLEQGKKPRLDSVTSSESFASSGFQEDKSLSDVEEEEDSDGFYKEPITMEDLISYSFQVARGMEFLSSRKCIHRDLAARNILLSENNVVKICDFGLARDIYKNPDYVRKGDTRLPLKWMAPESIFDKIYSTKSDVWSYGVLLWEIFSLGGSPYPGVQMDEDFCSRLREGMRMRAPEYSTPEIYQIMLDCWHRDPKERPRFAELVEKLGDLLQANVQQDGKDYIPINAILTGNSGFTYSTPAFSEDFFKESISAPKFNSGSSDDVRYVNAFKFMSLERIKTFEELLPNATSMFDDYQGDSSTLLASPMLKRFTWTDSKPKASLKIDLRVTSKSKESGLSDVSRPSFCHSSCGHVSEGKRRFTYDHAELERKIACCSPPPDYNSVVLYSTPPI
As to the kind of experiment: VEGFR1 Kinase-Glo kinase assay. It counts as biochemical. The method, then: (§1) The recombinant GST-VEGFR1 (residues R781-I1338) or GST-VEGFR2 (residues V789-V1356) containing kinase domain were expressed in Sf9 insect cells. The kinase assay were carried out in 96-well plates with tested compound in a final volume of 50 μl reaction at 30° C. for 120 minutes with following components: 25 mM HEPES pH 7.4, 10 mM MgCl2, 4 mM MnCl2, 0.5 mM Na3VO4, 2 mM DTT, 0.02% Triton X100, 0.01% BSA, 1 μM ATP, 2 μM polyGlu4:Tyr peptide, 50˜100 ng recombinant VEGFR1 or VEGFR2. Following incubation, 50 μl Kinase-Glo Plus Reagent (Promega, Madison, Wis., USA) was added to each well and the mixture was incubated at 25° C. for 20 min. A 70-μL aliquot of each reaction mixture was transferred to a black microtiter plate and the luminescence was measured on Wallac Vector 1420 multilabel counter (PerkinElmer, Shelton, Conn., USA).

For experiment [2], the target named is T2, wt-FLT3 (Homo sapiens, UniProt P36888).
T2 construct: FLT3 kinase catalytic domain (residues Y567˜S993); made in house; host or cells: Sf9 insect cells (baculovirus, pBac-PAK8-GST-FLT3-KD plasmid)
T2 sequence (P36888 567-993): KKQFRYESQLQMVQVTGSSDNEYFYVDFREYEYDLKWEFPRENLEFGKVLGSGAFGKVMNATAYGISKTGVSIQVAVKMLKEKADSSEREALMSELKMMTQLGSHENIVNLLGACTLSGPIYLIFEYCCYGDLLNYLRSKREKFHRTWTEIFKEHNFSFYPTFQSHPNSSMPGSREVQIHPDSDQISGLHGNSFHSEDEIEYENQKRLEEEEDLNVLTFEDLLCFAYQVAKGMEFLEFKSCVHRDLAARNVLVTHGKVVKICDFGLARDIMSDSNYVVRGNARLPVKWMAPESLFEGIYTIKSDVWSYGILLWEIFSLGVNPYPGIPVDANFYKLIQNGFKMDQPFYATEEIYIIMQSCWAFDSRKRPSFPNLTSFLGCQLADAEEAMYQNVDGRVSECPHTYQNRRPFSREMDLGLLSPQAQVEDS
Kind of experiment: FLT3 WT Kinase-Glo assay. It counts as biochemical. The method, then: GST-FLT3-KD^WT containing the FLT3 kinase catalytic domain (residues Y567˜S993) were expressed in Sf9 insect cells transfected the baculovirus containing pBac-PAK8-GST-FLT3-KD plasmid. […] Following incubation, 50 μl Kinase-Glo Plus Reagent (Promega, Madison, Wis., USA) was added to each well and the mixture was incubated at 25° C. for 20 min. A 70-μL aliquot of each reaction mixture was transferred to a black microtiter plate and the luminescence was measured on Wallac Vector 1420 multilabel counter (PerkinElmer, Shelton, Conn., USA).

Experiment [3] relates to MOLM-13 cell. As to the kind of experiment: MTS cell viability assay. It counts as cell-based. As to conditions: Homo sapiens, MOLM-13, 72 h, table of representative values. An excerpt:
The leukemias cell lines MOLM-13, MV4:11, RSV4:11, MOLT-4, U937, and K562 were purchased from American Type Culture Collection (ATCC, Manassas, Va., USA). The non-leukemias cell lines HCC827, H1975, NCIH460, A431, Huh7, SF268, MCF-7, HCT-116, and normal human fetal fibroblast cell line Detriot 551 were purchased from American Type Culture Collection (ATCC, Manassas, Va., USA). All leukemias cell lines and HCC827, H1975, NCIH460, A431 were maintained in RPMI 1640 medium supplemented with 10% fetal bovine serum (FBS), 10 U/ml penicillin, and 10 µg/ml streptomycin at 37° C. and 5% CO2. The cell lines Huh7, SF268, MCF-7, and Detroit 551 were cultured in DMEM medium supplemented with 10% FBS, 0.01% nonessential amino acids, 10 U/ml penicillin, and 10 µg/ml streptomycin. HCT-116 were cultured in McCoy's 5A medium supplemented with 10% FBS, 0.01% nonessential amino acids, 10 U/ml penicillin, and 10 µg/ml streptomycin. To determine cell viability after drug treatment, assays were performed by seeding 10,000 cells (leukemias cell lines) or 2,500 cells (non-leukemias cell lines) per well in a 96-well culture plate. After 16 h, cells were then treated with vehicle or various concentrations of compound in medium for 72 h. Viable cells were quantitated using the MTS method (Promega, Madison, Wis., USA) according to the manufacturer's recommended protocol. The results were determined by measuring the absorbance at 490 nm using a plate reader (Victor2; PerkinElmer, Shelton, Conn., USA).

Experiment [4] deals with T3, VEGFR2 (Homo sapiens, UniProt P35968).
T3 construct: GST-VEGFR2 (residues V789-V1356); GST (N); made in house; host or cells: Sf9 insect cells
T3 sequence (P35968 789-1356): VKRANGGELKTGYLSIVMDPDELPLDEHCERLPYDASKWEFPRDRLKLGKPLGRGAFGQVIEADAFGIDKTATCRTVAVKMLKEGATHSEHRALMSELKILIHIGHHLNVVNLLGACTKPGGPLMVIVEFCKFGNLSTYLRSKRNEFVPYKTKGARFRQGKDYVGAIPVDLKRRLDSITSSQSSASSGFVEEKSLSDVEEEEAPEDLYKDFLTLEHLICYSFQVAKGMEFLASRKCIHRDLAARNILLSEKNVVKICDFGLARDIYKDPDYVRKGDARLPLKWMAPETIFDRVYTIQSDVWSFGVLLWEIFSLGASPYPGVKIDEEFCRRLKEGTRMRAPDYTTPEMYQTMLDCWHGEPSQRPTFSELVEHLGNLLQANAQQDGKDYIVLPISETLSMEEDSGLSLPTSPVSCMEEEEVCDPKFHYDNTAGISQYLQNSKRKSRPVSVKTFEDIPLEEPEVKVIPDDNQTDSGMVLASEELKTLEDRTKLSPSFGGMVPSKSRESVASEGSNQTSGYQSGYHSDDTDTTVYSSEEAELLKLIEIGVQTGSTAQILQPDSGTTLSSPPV
Kind of experiment: VEGFR2 Kinase-Glo kinase assay. It counts as biochemical. As for the experimental part: as §1

Experiment [5] deals with T4, Aurora A (Homo sapiens, UniProt O14965).
T4 construct: GST-Aurora A (residues S123-S401); GST (N); made in house; host or cells: Sf9 insect cells
T4 sequence (O14965 123-401): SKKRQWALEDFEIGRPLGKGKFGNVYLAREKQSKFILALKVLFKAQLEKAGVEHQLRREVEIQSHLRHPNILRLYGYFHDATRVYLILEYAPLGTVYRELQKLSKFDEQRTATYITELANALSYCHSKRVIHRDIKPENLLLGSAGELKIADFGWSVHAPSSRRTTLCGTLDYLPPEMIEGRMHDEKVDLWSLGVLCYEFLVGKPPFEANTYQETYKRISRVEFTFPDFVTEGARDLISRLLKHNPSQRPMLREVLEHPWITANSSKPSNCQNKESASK
As to the kind of experiment: Aurora kinase A Kinase-Glo kinase assay. In kind it is biochemical. The method, then: The recombinant GST-Aurora A (residues S123-S401) containing kinase domain were expressed in Sf9 insect cells. The kinase assay were carried out in 96-well plates with tested compound in a final volume of 50 μl reaction at 37° C. for 90 minutes with following components: 50 mM Tris-HCl pH 7.4, 10 mM NaCl, 10 mM MgCl2, 0.01% BSA, 5 μM ATP, 1 mM DTT and 15 μM tetra(LRRASLG) peptide, and 150 ng recombinant Aurora A. Following incubation, 50 μl Kinase-Glo Plus Reagent (Promega, Madison, Wis., USA) was added to each well and the mixture was incubated at 25° C. for 20 min. A 70-μL aliquot of each reaction mixture was transferred to a black microtiter plate and the luminescence was measured on Wallac Vector 1420 multilabel counter (PerkinElmer, Shelton, Conn., USA).

The mark [6] stands for this setting: VEGFR1 assay, 1 μM ATP, bound in μM, read-out: IC50.
Setting [7] is: table of representative values, read-out: IC50 (nM) VEGFR1.
[8] abbreviates: table of representative values, read-out: IC50 (nM) wt-FLT3.
The mark [9] stands for this setting: VEGFR2 assay, 1 μM ATP, bound in μM, read-out: IC50.
Setting [10] is: VEGFR2 assay, 1 μM ATP, ranges in nM, read-out: IC50.
[11] abbreviates: table of representative values, read-out: IC50 (nM) VEGFR2.
Where [12] appears, read: VEGFR1 assay, 1 μM ATP, bound in nM, read-out: IC50.
Setting [13] is: table of representative values, read-out: IC50 (nM) Aurora A.
The mark [14] stands for this setting: FLT3 WT Kinase-Glo, 1 μM ATP, read-out: IC50.
[15] abbreviates: Aurora A assay, 5 μM ATP, bound in μM, read-out: IC50.
[16] abbreviates: Aurora A assay, 5 μM ATP, bound in nM, read-out: IC50.

Where two headings read alike, the source gives them in different places.

As to `CN1CCN(Cc2ccc(C(=O)Nc3cc(-c4ccc(CNC(=O)Nc5cc(C6CC6)on5)cc4)n[nH]3)cc2)CC1` [Compound 62d, N1-(3-4-[([(5-cyclopropyl-3-isoxazolyl)amino]carbonylamino)methyl]phenyl-1H-5-pyrazolyl)-4-[(4-methylpiperazino)methyl]benzamide], the 50% inhibitory concentration (IC50) was under 1 µM in experiment [1] (setting [6]); 0.18 µM in experiment [1] (setting [7]); 38 nM in experiment [2] (setting [8]); under 1 µM in experiment [4] (setting [9]); 0.001 to 0.055 µM in experiment [4] (setting [10]); 0.023 µM in experiment [4] (setting [11]). Also, the GI50 in experiment [3] was determined as 3 nM.
For the compound `CCc1cc(NC(=O)NCc2ccc(-c3cc(NC(=O)c4ccc(CN5CCN(C)CC5)cc4)[nH]n3)cc2)no1` [Compound 62b, N1-(3-4-[([(5-ethyl-3-isoxazolyl)amino]carbonylamino)methyl]phenyl-1H-5-pyrazolyl)-4-[(4-methylpiperazino)methyl]benzamide], the IC50 in experiment [1] (setting [12]) was under 0.1 µM; in experiment [1] (setting [6]), under 1 µM; in experiment [1] (setting [7]), 0.029 µM; in experiment [2] (setting [8]), 26 nM; in experiment [4] (setting [9]), under 1 µM; in experiment [4] (setting [10]) it was 0.001 to 0.055 µM. For the same compound, the values for the IC50 in experiment [4] (setting [11]) and in experiment [5] (setting [13]) were 0.037 µM and over 1000 nM, respectively. Also, it took 2 nM to inhibit growth in experiment [3] by half (GI50).
On to `CN1CCN(c2ccc(C(=O)Nc3cc(-c4cccc(NS(=O)(=O)c5ccccc5)c4)n[nH]3)cc2)CC1` [Compound 12, N1-(3-3-[(phenylsulfonyl)amino]phenyl-1H-5-pyrazolyl)-4-(4-methylpiperazino)benzamide], for which the IC50 in experiment [1] (setting [6]) was under 1 µM; in experiment [2] (setting [14]), 1 to 20 nM; in experiment [4] (setting [9]), under 1 µM; in experiment [4] (setting [10]) it was 0.055 to 0.4 µM; in experiment [5] (setting [15]), under 1000 nM.
Turning to `CCc1cc(NC(=O)Nc2ccc(-c3cc(NC(=O)c4ccc(OCCN5CCOCC5)cc4)[nH]n3)cc2C)no1` [Compound 46b, N1-3-[4-([(5-ethyl-3-isoxazolyl)amino]carbonylamino)-3-methylphenyl]-1H-5-pyrazolyl-4-(2-morpholinoethoxy)benzamide], the IC50 in experiment [1] (setting [6]) is under 1 µM; in experiment [1] (setting [7]), 0.29 µM; in experiment [2] (setting [8]), 27 nM; in experiment [4] (setting [9]), under 1 µM; in experiment [4] (setting [11]), 0.151 µM; in experiment [5] (setting [16]) it was under 200 nM. Further, the IC50 is under 1000 nM in experiment [5] (setting [15]) and 22 nM in experiment [5] (setting [13]). In experiment [3], this compound had a GI50 of 1 nM.
For `Cc1cc(-c2cc(NC(=O)c3ccc(OCCN4CCOCC4)cc3)[nH]n2)ccc1NC(=O)Nc1cc(C2CC2)on1` [Compound 46c, N1-3-[4-([(5-cyclopropyl-3-isoxazolyl)amino]carbonylamino)-3-methylphenyl]-1H-5-pyrazolyl-4-(2-morpholinoethoxy)benzamide], the IC50 in experiment [1] (setting [12]) is under 0.1 µM; in experiment [1] (setting [6]), under 1 µM; in experiment [1] (setting [7]), 0.053 µM; in experiment [2] (setting [8]), 38 nM; in experiment [4] (setting [9]), under 1 µM; in experiment [4] (setting [10]) it was 0.001 to 0.055 µM. Besides, the IC50 was 0.037 µM in experiment [4] (setting [11]), under 200 nM in experiment [5] (setting [16]), under 1000 nM in experiment [5] (setting [15]) and 41 nM in experiment [5] (setting [13]). Halving of growth in experiment [3] (GI50) required 2 nM.
On to `Cc1cccc(S(=O)(=O)Nc2cccc(-c3cc(NC(=O)c4ccc(N5CCN(C)CC5)cc4)[nH]n3)c2)c1` [Compound 15, N1-[3-(3-[(3-methylphenyl)sulfonyl]aminophenyl)-1H-5-pyrazolyl]-4-(4-methylpiperazino)benzamide], for which the half-maximal inhibitory concentration (IC50) in experiment [1] (setting [6]) was under 1 µM; in experiment [2] (setting [14]), 1 to 20 nM; in experiment [4] (setting [9]) it was under 1 µM; in experiment [4] (setting [10]) it was 0.055 to 0.4 µM; in experiment [5] (setting [15]) it was under 1000 nM.
For `O=C(NCc1ccc(-c2cc(NC(=O)c3ccc(OCCN4CCOCC4)cc3)[nH]n2)cc1)Nc1cc(C2CC2)on1` [Compound 59d, N1-(3-4-[([(5-cyclopropyl-3-isoxazolyl)amino]carbonylamino)methyl]phenyl-1H-5-pyrazolyl)-4-(2-morpholinoethoxy)benzamide], the IC50 is under 1 µM in experiment [1] (setting [6]); 0.342 µM in experiment [1] (setting [7]); 21 nM in experiment [2] (setting [8]); under 1 µM in experiment [4] (setting [9]); 0.001 to 0.055 µM in experiment [4] (setting [10]); 0.045 µM in experiment [4] (setting [11]). Besides, the concentration for 50% growth inhibition (GI50) in experiment [3] turned out to be 6 nM.

The record behind these values is patent publication US9255072B2, “Pyrazole compounds and thiazole compounds as protein kinases inhibitors” (National Health Rsearch Institutes, priority 2011, dated 2016).
